# Earlier results, collected in PubChem BioAssay AID1259409 (Chemical Carcinogenesis Research Information System (CCRIS), 2018).
# Tested on: rodent chemically induced tumor inhibition, incidence and multiplicity
# Assay: CCRIS tumor inhibitor studies
# Conditions: Dose [Inhibitor]: 0, Route [Inhibitor]: ORAL, Species: RAT, Promoter: NONE USED
smiles,measurement,setting,value
N#C[Se]Cc1ccc(C[Se]C#N)cc1,"tumour outcome (control, treated, inhibition, significance)","Carcinogen: 7,12-DIMETHYLBENZ[A]ANTHRACENE, 57-97-6, 5 PPM (AS SELENIUM) IN DIET BEGINNING 2 WK PRIOR TO CARCINOGEN DOSE AND CONTINUING FOR 1 WK POST CARCINOGEN DOSE (STU, Strain/Sex: SPRAGUE-DAWLEY/FEMALE, Target Tissue: Type of Lesion: MAMMARY GLAND: ADENOCARCINOMA, Dose [Carcinogen]: 10 MG ONCE AT 55 D OF AGE","22/25 (88%), 15/25 (60%), 32%, p<0.05"
same,"tumour outcome (control, treated, inhibition, significance)","Carcinogen: 7,12-DIMETHYLBENZ[A]ANTHRACENE, 57-97-6, 5 PPM (AS SELENIUM) IN DIET BEGINNING 2 WK PRIOR TO CARCINOGEN DOSE AND CONTINUING FOR DURATION OF STUDY (STUDY DURAT, Strain/Sex: SPRAGUE-DAWLEY/FEMALE, Target Tissue: Type of Lesion: MAMMARY GLAND: ADENOCARCINOMA, Dose [Carcinogen]: 10 MG ONCE AT 55 D OF AGE","88%, 52%, 41%, p<0.05"
same,"tumour outcome (control, treated, inhibition, significance)","Carcinogen: 7,12-DIMETHYLBENZ[A]ANTHRACENE, 57-97-6, 10 PPM (AS SELENIUM) IN DIET BEGINNING 1 WK POST CARCINOGEN DOSE AND CONTINUING FOR 25 WK (STUDY DURATION: 25 WK), Strain/Sex: SPRAGUE-DAWLEY/FEMALE, Target Tissue: Type of Lesion: MAMMARY GLAND: ADENOCARCINOMA, Dose [Carcinogen]: 10 MG ONCE AT 55 D OF AGE","22/25 (88%), 14/25 (56%), 36%, p<0.05"
same,"tumour outcome (control, treated, inhibition, significance)","Carcinogen: 7,12-DIMETHYLBENZ[A]ANTHRACENE, 57-97-6, 10 PPM (AS SELENIUM) IN DIET BEGINNING 2 WK PRIOR TO CARCINOGEN DOSE AND CONTINUING FOR 1 WK POST CARCINOGEN DOSE (ST, Strain/Sex: SPRAGUE-DAWLEY/FEMALE, Target Tissue: Type of Lesion: MAMMARY GLAND: ADENOCARCINOMA, Dose [Carcinogen]: 10 MG ONCE AT 55 D OF AGE","22/25 (88%), 12/25 (48%), 45%, p<0.05"
same,"tumour outcome (control, treated, inhibition, significance)","Carcinogen: 7,12-DIMETHYLBENZ[A]ANTHRACENE, 57-97-6, 10 PPM (AS SELENIUM) IN DIET BEGINNING 2 WK PRIOR TO CARCINOGEN DOSE AND CONTINUING FOR DURATION OF STUDY (STUDY DURA, Strain/Sex: SPRAGUE-DAWLEY/FEMALE, Target Tissue: Type of Lesion: MAMMARY GLAND: ADENOCARCINOMA, Dose [Carcinogen]: 10 MG ONCE AT 55 D OF AGE","88%, 40%, 55%, p<0.05"
same,"tumour outcome (control, treated, inhibition, significance)","Carcinogen: 7,12-DIMETHYLBENZ[A]ANTHRACENE, 57-97-6, 15 PPM (AS SELENIUM) IN DIET BEGINNING 1 WK POST CARCINOGEN DOSE AND CONTINUING FOR 25 WK (STUDY DURATION: 25 WK), Strain/Sex: SPRAGUE-DAWLEY/FEMALE, Target Tissue: Type of Lesion: MAMMARY GLAND: ADENOCARCINOMA, Dose [Carcinogen]: 10 MG ONCE AT 55 D OF AGE","22/25 (88%), 12/25 (48%), 45%, p<0.05"
same,"tumour outcome (control, treated, inhibition, significance)","Carcinogen: 7,12-DIMETHYLBENZ[A]ANTHRACENE, 57-97-6, 15 PPM (AS SELENIUM) IN DIET BEGINNING 2 WK PRIOR TO CARCINOGEN DOSE AND CONTINUING FOR 1 WK POST CARCINOGEN DOSE (ST, Strain/Sex: SPRAGUE-DAWLEY/FEMALE, Target Tissue: Type of Lesion: MAMMARY GLAND: ADENOCARCINOMA, Dose [Carcinogen]: 10 MG ONCE AT 55 D OF AGE","22/25 (88%), 6/25 (24%), 73%, p<0.05"
same,"tumour outcome (control, treated, inhibition, significance)","Carcinogen: 7,12-DIMETHYLBENZ[A]ANTHRACENE, 57-97-6, 80 PPM IN HIGH FAT DIET FOR 2 WK BEGINNING 1 WK PRIOR TO CARCINOGEN DOSE (STUDY DURATION: 17 WK), Strain/Sex: SPRAGUE-DAWLEY/FEMALE, Target Tissue: Type of Lesion: MAMMARY GLAND: TUMOR, Dose [Carcinogen]: 5 MG IN 0.2 ML OLIVE OIL ONCE","22/25 (88%), 5/25 (20%), 77%, p<0.01"
same,"tumour outcome (control, treated, inhibition, significance)","Carcinogen: AZOXYMETHANE, 25843-45-2, 20 PPM IN HIGH-FAT DIET BEGINNING 2 WK PRIOR TO CARCINOGEN TREATMENT AND CONTINUING FOR 3 D POST CARCINOGEN TREATMENT, Strain/Sex: F344/MALE, Target Tissue: Type of Lesion: COLON: ADENOCARCINOMA, Dose [Carcinogen]: 15 MG/KG BW/WK FOR 2 WK","80%, 63%, 21%, not significant"
same,"tumour outcome (control, treated, inhibition, significance)","Carcinogen: AZOXYMETHANE, 25843-45-2, 40 PPM IN HIGH-FAT DIET BEGINNING 2 WK PRIOR TO CARCINOGEN TREATMENT AND CONTINUING FOR 3 D POST CARCINOGEN TREATMENT, Strain/Sex: F344/MALE, Target Tissue: Type of Lesion: COLON: ADENOCARCINOMA, Dose [Carcinogen]: 15 MG/KG BW/WK FOR 2 WK","80%, 50%, 38%, p<0.05"
same,"tumour outcome (control, treated, inhibition, significance)","Carcinogen: AZOXYMETHANE, 25843-45-2, 40 PPM IN HIGH-FAT DIET FOR DURATION OF STUDY BEGINNING 3 D POST CARCINOGEN TREATMENT (STUDY DURATION: 36 WK), Strain/Sex: F344/MALE, Target Tissue: Type of Lesion: COLON: ADENOCARCINOMA, Dose [Carcinogen]: 15 MG/KG BW/WK FOR 2 WK","80%, 37%, 54%, p<0.05"
